Measured values taken from patent US11787785B2 (NOVARTIS AG, priority 2021, dated 2023).

Target: T1, WIZ protein (HiBit-WIZ fusion protein) (Homo sapiens, UniProt O95785+Q96SW2)
T1 construct: expressed in transfected cells
Test: Quantification of WIZ protein levels in HiBit tag fusion protein assay (WIZ HiBit assay in 293T cells)
Type: cell-based
Details: for Dmax at 25 µM / remaining activity at 25 µM: HEK-293T; for Dmax at 25 µM / % degradation of WIZ (100 − Amax): 100 − Amax, at 25 uM; for Dmax at 25 µM / remaining activity at 25 µM / % degradation of WIZ (100 − Amax) / WIZ Amax: 293T cells; for Dmax at 25 µM: read-out: % degradation of WIZ (100 − Amax); for remaining activity at 25 µM / WIZ Amax: DMSO-normalized, curve-fitted percentage of WIZ-HiBit remaining at 25 uM; for remaining activity at 25 µM: read-out: WIZ Amax; for DC50: WIZ HiBit assay in 293T cells, 10-point, 5-fold dose response, highest concentration 25 μM, about 18 hours, read-out: WIZ AC50
Procedure, shortened: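 HiBit-tagged WIZ (N-terminal tag, HSVTK promoter) stably expressed single-copy in 293T cells; 10-point 1:5 compound series, top 25 μM, ~18 h at 37 °C. Lytic HiBit/LgBit luminescence read; Amax = curve-fitted % WIZ-HiBit remaining at 25 μM, DMSO normalized to 100%.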

T1 sequence (O95785 whole entry, the tested form may be a part): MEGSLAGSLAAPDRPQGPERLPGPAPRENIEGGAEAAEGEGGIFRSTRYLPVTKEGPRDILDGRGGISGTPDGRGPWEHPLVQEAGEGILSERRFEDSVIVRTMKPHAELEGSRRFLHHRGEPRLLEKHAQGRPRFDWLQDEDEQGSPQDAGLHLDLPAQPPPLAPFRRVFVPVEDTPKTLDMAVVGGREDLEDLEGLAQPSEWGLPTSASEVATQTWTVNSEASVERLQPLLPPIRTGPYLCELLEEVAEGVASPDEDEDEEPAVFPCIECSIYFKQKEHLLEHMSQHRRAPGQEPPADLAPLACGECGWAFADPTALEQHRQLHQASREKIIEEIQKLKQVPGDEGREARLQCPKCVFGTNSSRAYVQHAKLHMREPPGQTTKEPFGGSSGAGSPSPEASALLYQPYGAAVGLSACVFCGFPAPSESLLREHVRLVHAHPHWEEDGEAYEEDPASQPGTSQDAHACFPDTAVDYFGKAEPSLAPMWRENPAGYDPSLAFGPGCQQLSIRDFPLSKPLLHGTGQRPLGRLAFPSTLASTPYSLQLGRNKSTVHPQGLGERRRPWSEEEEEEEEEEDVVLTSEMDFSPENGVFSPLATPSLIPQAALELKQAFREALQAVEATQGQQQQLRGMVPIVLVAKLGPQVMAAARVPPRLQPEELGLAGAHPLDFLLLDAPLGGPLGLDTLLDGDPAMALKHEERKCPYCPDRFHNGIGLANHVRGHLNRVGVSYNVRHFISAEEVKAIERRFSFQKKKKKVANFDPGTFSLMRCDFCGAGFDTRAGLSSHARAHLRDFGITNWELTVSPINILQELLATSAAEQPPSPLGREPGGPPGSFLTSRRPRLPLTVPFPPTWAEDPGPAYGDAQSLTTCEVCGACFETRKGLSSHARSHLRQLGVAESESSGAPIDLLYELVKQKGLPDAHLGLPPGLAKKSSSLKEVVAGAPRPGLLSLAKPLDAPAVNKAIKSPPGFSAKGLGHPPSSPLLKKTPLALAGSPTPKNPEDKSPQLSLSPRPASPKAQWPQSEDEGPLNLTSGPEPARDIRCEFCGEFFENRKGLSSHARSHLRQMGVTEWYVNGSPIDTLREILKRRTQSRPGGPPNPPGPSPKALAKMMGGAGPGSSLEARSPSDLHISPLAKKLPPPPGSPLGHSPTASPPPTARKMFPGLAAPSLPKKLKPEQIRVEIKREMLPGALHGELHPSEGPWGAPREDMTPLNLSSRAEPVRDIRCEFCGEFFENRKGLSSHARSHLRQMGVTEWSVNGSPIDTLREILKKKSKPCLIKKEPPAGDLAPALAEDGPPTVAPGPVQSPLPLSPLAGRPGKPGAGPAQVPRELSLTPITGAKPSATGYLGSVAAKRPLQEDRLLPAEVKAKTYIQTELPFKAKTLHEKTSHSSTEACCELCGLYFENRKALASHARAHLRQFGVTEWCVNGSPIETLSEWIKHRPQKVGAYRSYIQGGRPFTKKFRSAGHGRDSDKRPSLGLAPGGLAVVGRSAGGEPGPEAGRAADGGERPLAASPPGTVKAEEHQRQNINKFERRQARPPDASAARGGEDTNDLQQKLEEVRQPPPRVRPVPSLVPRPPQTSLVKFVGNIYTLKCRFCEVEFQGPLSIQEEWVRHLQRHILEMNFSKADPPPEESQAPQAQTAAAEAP
T1 sequence (Q96SW2 whole entry, the tested form may be a part): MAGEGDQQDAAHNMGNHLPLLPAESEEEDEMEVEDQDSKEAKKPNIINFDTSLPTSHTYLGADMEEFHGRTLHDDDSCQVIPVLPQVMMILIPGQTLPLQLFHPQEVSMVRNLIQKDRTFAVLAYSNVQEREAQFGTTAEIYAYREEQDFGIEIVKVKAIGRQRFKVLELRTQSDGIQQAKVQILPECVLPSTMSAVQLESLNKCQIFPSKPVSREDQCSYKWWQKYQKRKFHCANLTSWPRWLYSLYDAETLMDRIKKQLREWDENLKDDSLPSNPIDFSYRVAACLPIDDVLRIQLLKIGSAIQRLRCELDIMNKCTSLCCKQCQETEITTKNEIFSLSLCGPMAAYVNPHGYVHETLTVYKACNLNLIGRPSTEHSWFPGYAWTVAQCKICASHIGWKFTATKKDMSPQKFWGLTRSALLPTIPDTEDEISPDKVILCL
T1 sequence (Q16531 whole entry partner, the tested form may be a part): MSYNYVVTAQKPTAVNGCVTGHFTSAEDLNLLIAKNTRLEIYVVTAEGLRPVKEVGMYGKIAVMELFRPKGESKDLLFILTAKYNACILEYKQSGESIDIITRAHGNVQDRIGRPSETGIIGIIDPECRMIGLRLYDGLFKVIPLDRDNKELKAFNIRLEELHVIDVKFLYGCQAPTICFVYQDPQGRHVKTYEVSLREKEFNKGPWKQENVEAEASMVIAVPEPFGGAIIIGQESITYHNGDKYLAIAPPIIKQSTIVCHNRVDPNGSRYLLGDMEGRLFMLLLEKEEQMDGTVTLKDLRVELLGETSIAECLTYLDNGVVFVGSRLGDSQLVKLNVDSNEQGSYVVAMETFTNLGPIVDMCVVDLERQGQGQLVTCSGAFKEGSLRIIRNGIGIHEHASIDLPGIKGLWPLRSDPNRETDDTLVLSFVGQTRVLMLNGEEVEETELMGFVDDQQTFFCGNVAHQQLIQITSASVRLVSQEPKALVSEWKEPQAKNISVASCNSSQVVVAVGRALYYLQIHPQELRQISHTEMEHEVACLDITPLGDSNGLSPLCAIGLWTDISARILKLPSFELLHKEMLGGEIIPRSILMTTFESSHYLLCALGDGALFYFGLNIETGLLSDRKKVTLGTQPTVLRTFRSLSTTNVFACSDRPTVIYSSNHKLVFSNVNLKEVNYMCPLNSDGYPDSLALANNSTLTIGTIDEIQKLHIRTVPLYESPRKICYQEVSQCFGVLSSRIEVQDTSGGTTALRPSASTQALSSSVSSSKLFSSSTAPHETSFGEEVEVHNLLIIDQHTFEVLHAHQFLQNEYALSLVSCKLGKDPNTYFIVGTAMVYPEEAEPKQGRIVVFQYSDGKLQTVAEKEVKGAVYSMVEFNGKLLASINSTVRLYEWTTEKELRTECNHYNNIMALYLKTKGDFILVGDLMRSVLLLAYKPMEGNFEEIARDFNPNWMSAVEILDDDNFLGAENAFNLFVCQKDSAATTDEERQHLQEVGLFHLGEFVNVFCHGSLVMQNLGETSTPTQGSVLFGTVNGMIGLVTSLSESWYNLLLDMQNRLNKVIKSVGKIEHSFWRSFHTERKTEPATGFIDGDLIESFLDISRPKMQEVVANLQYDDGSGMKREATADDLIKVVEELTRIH

SMILES | Dmax at 25 µM [%] | remaining activity at 25 µM [%] | DC50 [nM] | % degradation of WIZ (100 − Amax) [%] | WIZ Amax [%]
COc1ccc(CN2CCC(Cc3ccn4ncc(N5CCC(=O)NC5=O)c4c3)CC2)cc1 [Example 61, 1-(5-((1-(4-methoxybenzyl)piperidin-4-yl)methyl)pyrazolo[1,5-a]pyridin-3-yl)dihydropyrimidine-2,4(1H,3H)-dione] | 62 | 38 | 1740 | – | –
CC(C)(C1CCOCC1)N1CCN(Cc2ccn3ncc(N4CCC(=O)NC4=O)c3c2)CC1 [Example 182, 1-(5-((4-(2-(tetrahydro-2H-pyran-4-yl)propan-2-yl)piperazin-1-yl)methyl)pyrazolo[1,5-a]pyridin-3-yl)dihydropyrimidine-2,4(1H,3H)-dione] | 67 | 33 | 199 | – | –
CC(C)CN1CC[C@@H](Cc2ccn3ncc(-n4cc(C5CC5)c(=O)[nH]c4=O)c3c2)C[C@@H]1C [Example 354, 5-cyclopropyl-1-(5-(((2S,4R)-1-isobutyl-2-methylpiperidin-4-yl)methyl)pyrazolo[1,5-a]pyridin-3-yl)pyrimidine-2,4(1H,3H)-dione] | 0 | 100 | > 25000 | – | –
CC(C)CN1CCN(Cc2ccn3ncc(N4CCC(=O)NC4=O)c3c2)C(=O)C1 [Example 254, 1-(5-((4-isobutyl-2-oxopiperazin-1-yl)methyl)pyrazolo[1,5-a]pyridin-3-yl)dihydropyrimidine-2,4(1H,3H)-dione] | 0 | 100 | > 25000 | – | –
O=C1CCN(c2cnn3ccc(CN4C[C@H]5C[C@@H]4CN5Cc4cccnc4)cc23)C(=O)N1 [Example 235, 1-(5-(((1R,4R)-5-(pyridin-3-ylmethyl)-2,5-diazabicyclo[2.2.1]heptan-2-yl)methyl)pyrazolo[1,5-a]pyridin-3-yl)dihydropyrimidine-2,4(1H,3H)-dione] | 35 | 65 | 3280 | – | –
C[C@H]1CC(F)(Cc2ccn3ncc(N4CCC(=O)NC4=O)c3c2)CCN1CC1CCC(F)(F)CC1 (single isomer, unassigned) [Example 309] | – | – | 56 | 62 | 38
C[C@H]1CC(F)(Cc2ccn3ncc(N4CCC(=O)NC4=O)c3c2)CCN1C1COC1 (single isomer, unassigned) [Example 311] | – | – | 310 | 78 | 22
O=C1CCN(c2cnn3ccc(CC4CCN(CC5(C(F)(F)F)CC5)CC4)cc23)C(=O)N1 [Example 55, 1-(5-((1-((1-(trifluoromethyl)cyclopropyl)methyl)piperidin-4-yl)methyl)pyrazolo[1,5-a]pyridin-3-yl)dihydropyrimidine-2,4(1H,3H)-dione] | 64 | 36 | 103 | – | –
COC(=O)N1CCC(Cc2ccn3ncc(N4CCC(=O)NC4=O)c3c2)CC1 [Example 93] | 62 | 38 | 6520 | – | –
C[C@H]1CN(Cc2ccn3ncc(N4CCC(=O)NC4=O)c3c2)CCN1CC(F)F [Example 327, (S)-1-(5-((4-(2,2-difluoroethyl)-3-methylpiperazin-1-yl)methyl)pyrazolo[1,5-a]pyridin-3-yl)dihydropyrimidine-2,4(1H,3H)-dione] | 54 | 46 | 653 | – | –
CC(C)(C)OC(=O)N1CCCC(Cc2ccn3ncc(N4CCC(=O)NC4=O)c3c2)CC1 (stereo not drawn) [Example 270, tert-butyl 4-((3-(2,4-dioxotetrahydropyrimidin-1(2H)-yl)pyrazolo[1,5-a]pyridin-5-yl)methyl)azepane-1-carboxylate] | 57 | 43 | 99 | – | –
CCS(=O)(=O)N1CC[C@@H](Cc2ccn3ncc(-n4ccc(=O)[nH]c4=O)c3c2)C[C@@H]1C [Example 356, 1-(5-(((2S,4R)-1-(ethylsulfonyl)-2-methylpiperidin-4-yl)methyl)pyrazolo[1,5-a]pyridin-3-yl)pyrimidine-2,4(1H,3H)-dione] | 83 | 17 | 162 | – | –
CN1CCCC(Cc2ccn3ncc(N4CCC(=O)NC4=O)c3c2)CC1 (stereo not drawn) [Example 271, 1-(5-((1-methylazepan-4-yl)methyl)pyrazolo[1,5-a]pyridin-3-yl)dihydropyrimidine-2,4(1H,3H)-dione] | 63 | 37 | 702 | – | –
CC(C)CN1CC[C@@H](Cc2ccn3ncc(-n4ccc(=O)[nH]c4=O)c3c2)C[C@@H]1C [Example 346, 1-(5-(((2S,4R)-1-isobutyl-2-methylpiperidin-4-yl)methyl)pyrazolo[1,5-a]pyridin-3-yl)pyrimidine-2,4(1H,3H)-dione] | 87 | 13 | 108 | – | –
CC(C)CN1CCN(Cc2ccn3ncc(N4CCC(=O)NC4=O)c3c2)C[C@@H]1C(C)C [Example 229, (S)-1-(5-((4-isobutyl-3-isopropylpiperazin-1-yl)methyl)pyrazolo[1,5-a]pyridin-3-yl)dihydropyrimidine-2,4(1H,3H)-dione] | 0 | 100 | > 25000 | – | –

Now those with a lower DC50, led by results:

Dmax at 25 µM [%] | remaining activity at 25 µM [%] | DC50 [nM] | % degradation of WIZ (100 − Amax) [%] | WIZ Amax [%] | SMILES
79 | 21 | 44 | – | – | CC(C)(C)CN1CCC(Cc2ccn3ncc(N4CCC(=O)NC4=O)c3c2)CC1 [Example 110]
76 | 24 | 46 | – | – | O=C1CCN(c2cnn3ccc(CC4CCN(Cc5cccc(OC(F)(F)F)c5)CC4)cc23)C(=O)N1 [Example 27, 1-(5-((1-(3-(trifluoromethoxy)benzyl)piperidin-4-yl)methyl)pyrazolo[1,5-a]pyridin-3-yl)dihydropyrimidine-2,4(1H,3H)-dione]
80 | 20 | 25 | – | – | CC(C)C(C)N1CCN(Cc2ccn3ncc(N4CCC(=O)NC4=O)c3c2)CC1 (stereo not drawn) [Example 240, 1-(5-((4-(3-methylbutan-2-yl)piperazin-1-yl)methyl)pyrazolo[1,5-a]pyridin-3-yl)dihydropyrimidine-2,4(1H,3H)-dione]
80 | 20 | 27 | – | – | CCC(C)S(=O)(=O)N1CCC(Cc2ccn3ncc(N4CCC(=O)NC4=O)c3c2)CC1 (stereo not drawn) [Example 86]
83 | 17 | 15 | – | – | C[C@H]1C[C@H](Cc2ccn3ncc(N4CCC(=O)NC4=O)c3c2)CCN1S(=O)(=O)N1CCCC1 [Example 291, 1-(5-(((2S,4R)-2-methyl-1-(pyrrolidin-1-ylsulfonyl)piperidin-4-yl)methyl)pyrazolo[1,5-a]pyridin-3-yl)dihydropyrimidine-2,4(1H,3H)-dione]
84 | 16 | 28 | – | – | O=C1CCN(c2cnn3ccc(CC4CCN(CC5CCOC5)CC4)cc23)C(=O)N1 (stereo not drawn) [Example 14, 1-(5-((1-((tetrahydrofuran-3-yl)methyl)piperidin-4-yl)methyl)pyrazolo[1,5-a]pyridin-3-yl)dihydropyrimidine-2,4(1H,3H)-dione]
70 | 30 | 34 | – | – | O=C1CCN(c2cnn3ccc(CC4CCN(CC(F)F)CC4)cc23)C(=O)N1 [Example 43, 1-(5-((1-(2,2-difluoroethyl)piperidin-4-yl)methyl)pyrazolo[1,5-a]pyridin-3-yl)dihydropyrimidine-2,4(1H,3H)-dione]
74 | 26 | 27 | – | – | O=C1CCN(c2cnn3ccc(CC4CCN(CC(F)(F)C(F)F)CC4)cc23)C(=O)N1 [Example 31, 1-(5-((1-(2,2,3,3-tetrafluoropropyl)piperidin-4-yl)methyl)pyrazolo[1,5-a]pyridin-3-yl)dihydropyrimidine-2,4(1H,3H)-dione]
90 | 10 | 5 | – | – | O=C1CCN(c2cnn3ccc(CC4CCN(CC5CCC(F)(F)CC5)CC4)cc23)C(=O)N1 [Example 4, 1-(5-((1-((4,4-difluorocyclohexyl)methyl)piperidin-4-yl)methyl)pyrazolo[1,5-a]pyridin-3-yl)dihydropyrimidine-2,4(1H,3H)-dione]
90 | 10 | 8 | – | – | C[C@H]1CN(Cc2ccn3ncc(N4CCC(=O)NC4=O)c3c2)CCN1CC1CCC(C)(C)CC1 [Example 200, (S)-1-(5-((4-((4,4-dimethylcyclohexyl)methyl)-3-methylpiperazin-1-yl)methyl)pyrazolo[1,5-a]pyridin-3-yl)dihydropyrimidine-2,4(1H,3H)-dione]
80 | 20 | 20 | – | – | O=C1CCN(c2cnn3ccc(CN4CCN(CCC5CCCCC5)CC4)cc23)C(=O)N1 [Example 187, 1-(5-((4-(2-cyclohexylethyl)piperazin-1-yl)methyl)pyrazolo[1,5-a]pyridin-3-yl)dihydropyrimidine-2,4(1H,3H)-dione]
79 | 21 | 20 | – | – | C[C@H]1C[C@H](Cc2ccn3ncc(N4CCC(=O)NC4=O)c3c2)CCN1CC(F)(F)F [Example 275, 1-(5-(((2S,4R)-2-methyl-1-(2,2,2-trifluoroethyl)piperidin-4-yl)methyl)pyrazolo[1,5-a]pyridin-3-yl)dihydropyrimidine-2,4(1H,3H)-dione]
